Active and inactive are the calls of the source. No cut-off for these calls is given here. Starred links: 1 amine or outer side, 2 acyl side, 3 side chain; linkers in the order of their positions; H or OH if unused. Non-standard residues stand in square brackets, D forms with d. Residues, ends and D or L forms follow the SMILES beside them. *: point of attachment. Pro(4R-OPh) = O=C(O)[C@@H]1C[C@@H](Oc2ccccc2)CN1; NH(1R-phenylethyl) = C[C@@H](N*)c1ccccc1; azaNva = CCCN(N[*:1])C(=O)[*:2]; Aad = N[C@@H](CCCC(=O)O)C(=O)O; Tle = CC(C)(C)[C@H](N)C(=O)O
Legend:
[1] = Inhibition of HCV NS3 protease by continuous spectrophotometric assay; set-up: species or system Hepacivirus hominis
Hepatitis C virus = assay: Antiviral activity against HCV by replicon-based cellular assay; assay type: functional, Hepacivirus hominis
[2] = Selectivity ratio, Ki for human neutrophil elastase to Ki for HCV NS3 protease

Structure (SMILES)	Ki [1]	EC90 (Hepatitis C virus)	Ratio Ki [2]	EC90 (Hepatitis C virus; Hepacivirus hominis)
CCCN(NC(=O)[C@@H]1[C@@H]2[C@H](CN1C(=O)[C@@H](NC(=O)N[C@H](CN1C(=O)C3CCC(C3)C1=O)C(C)(C)C)C(C)(C)C)C2(C)C)C(=O)C1CC1	3000 nM	15000 nM		
CCCN(NC(=O)[C@@H]1[C@@H]2[C@H](CN1C(=O)[C@@H](NC(=O)N[C@H](CN1C(=O)CC(C)(C)CC1=O)C(C)(C)C)C(C)(C)C)C2(C)C)C(=O)N[C@H](C)c1ccccc1	64 nM	300 nM	960	
CCCN(NC(=O)[C@@H]1[C@@H]2[C@H](CN1C(=O)[C@@H](NC(=O)N[C@H](CN1C(=O)C3CCC(C3)C1=O)C(C)(C)C)C(C)(C)C)C2(C)C)C(=O)NC(C)(C)C	1600 nM	8000 nM		
C[C@@H](NC(=O)N(CC1CC1)NC(=O)[C@@H]1[C@@H]2[C@H](CN1C(=O)[C@@H](NC(=O)N[C@H](CN1C(=O)CC(C)(C)CC1=O)C(C)(C)C)C(C)(C)C)C2(C)C)c1ccccc1	200 nM			inactive
CC(C)(C)NC(=O)N[C@H](C(=O)N1C[C@H]2[C@@H]([C@H]1C(=O)NC(CC1CCC1)C(=O)C(N)=O)C2(C)C)C(C)(C)C (stereo not given in full) [BOCEPREVIR]	14 nM	350 nM	2200	
CCCN(NC(=O)[C@@H]1[C@@H]2[C@H](CN1C(=O)[C@@H](NC(=O)N[C@H](CN(C)S(C)(=O)=O)C(C)(C)C)C(C)(C)C)C2(C)C)C(=O)N[C@H](C)c1ccccc1	110 nM	700 nM		
CCCN(NC(=O)[C@@H]1[C@@H]2[C@H](CN1C(=O)[C@@H](NC(=O)N[C@H](CN(C)S(=O)(=O)c1cccnc1)C(C)(C)C)C1CCCCC1)C2(C)C)C(=O)N[C@H](C)c1ccccc1	230 nM			inactive
CCCN(NC(=O)[C@@H]1[C@@H]2[C@H](CN1C(=O)[C@@H](NC(=O)N[C@H](CN1C(=O)C3CCC(C3)C1=O)C(C)(C)C)C(C)(C)C)C2(C)C)C(=O)N[C@H](C)c1ccccc1	32 nM	250 nM		
CCCN(NC(=O)[C@@H]1[C@@H]2[C@H](CN1C(=O)[C@@H](NC(=O)N[C@H](CN1C(=O)C3CCC(C3)C1=O)C(C)(C)C)C(C)(C)C)C2(C)C)C(=O)Nc1ccccc1	950 nM	2400 nM		
C[C@@H](NC(=O)N(CC1CC1)NC(=O)[C@@H]1[C@@H]2[C@H](CN1C(=O)[C@@H](NC(=O)N[C@H](CN1C(=O)C3CCC(C3)C1=O)C(C)(C)C)C(C)(C)C)C2(C)C)c1ccccc1	250 nM	1100 nM		
CCCN(NC(=O)[C@@H]1[C@@H]2[C@H](CN1C(=O)[C@@H](NC(=O)N[C@H](CN1C(=O)C3CCC(C3)C1=O)C(C)(C)C)C(C)(C)C)C2(C)C)C(C)=O	22000 nM			inactive
CCCN(NC(=O)[C@@H]1[C@@H]2[C@H](CN1C(=O)[C@@H](NC(=O)N[C@H](CN1C(=O)C3CCC(C3)C1=O)C(C)(C)C)C(C)(C)C)C2(C)C)C(=O)CCc1ccccc1	720 nM	3500 nM		
CCCN(NC(=O)[C@@H]1[C@@H]2[C@H](CN1C(=O)[C@@H](NC(=O)N[C@H](CN1C(=O)C3CCC(C3)C1=O)C(C)(C)C)C(C)(C)C)C2(C)C)C(=O)NC1CCCCC1	1300 nM	16000 nM		
CCCN(NC(=O)[C@@H]1[C@@H]2[C@H](CN1C(=O)[C@@H](NC(=O)N[C@H](CN1C(=O)C3CCC(C3)C1=O)C(C)(C)C)C(C)(C)C)C2(C)C)C(=O)NC1CC1	750 nM	6000 nM		
CCCN(NC(=O)[C@@H]1[C@@H]2[C@H](CN1C(=O)[C@@H](NC(=O)N[C@H](CN1C(=O)C3CCC(C3)C1=O)C(C)(C)C)C(C)(C)C)C2(C)C)C(=O)c1ccccc1	52000 nM			inactive
CCCN(NC(=O)[C@@H]1[C@@H]2[C@H](CN1C(=O)[C@@H](NC(=O)N[C@H](CN1C(=O)C3CCC(C3)C1=O)C(C)(C)C)C(C)(C)C)C2(C)C)C(=O)OC(C)(C)C	3100 nM	24000 nM		
CCCN(NC(=O)[C@@H]1C[C@@H](Oc2ccccc2)CN1C(=O)[C@@H](NC(=O)[C@@H](NC(=O)[C@H](CCCC(=O)O)NC(=O)[C@H](CCCC(=O)O)NC(C)=O)C(C)C)C(C)(C)C)C(=O)N[C@H](C)c1ccccc1 (Ac-[Aad][Aad]V[Tle][Pro(4R-OPh)][azaNva]-{NH(1R-phenylethyl)})	78 nM			

Source: ChEMBL document CHEMBL1153460, “Potent aza-peptide derived inhibitors of HCV NS3 protease” (Bioorg Med Chem Lett, 2009)
